Values quoted from earlier work as cited in patent publication EP0349956A1, “Azacyclic compounds and their preparation und use” (NOVO NORDISK A/S, priority 1988, dated 1990).
Read-outs that look alike come from different tables or passages of the source.

Biological target: muscarinic receptor in the CNS

## ³H-Oxotremorine-M
First of three different sites labelled by ³H-Oxo (high affinity)
  Kd: 1.8 nM
Second of three different sites labelled by ³H-Oxo (medium affinity)
  Kd: 20 nM
Third of three different sites labelled by ³H-Oxo (not determined under the present conditions), read-out: affinity
  Kd: 3000 nM
